# Patent US12150922B1, “Methods of inhibiting cyclooxygenase (COX) using tolterodine” (priority 2023, dated 2024)
# “And” between values parts separate entries of the source, which are not always exact repeats. Equal entries are not always repeated.
# Experiments:
# COX-2 = target: T1, COX-2 (Homo sapiens, UniProt P35354); assay: biochemical
# T1 construct: purchased Cayman Chemical (Ann Arbor, MI, USA)
# From the text: (§1) The Schrodinger Maestro molecular modeling suite (Schrodinger LLC, New York, USA) was utilized for all stages of virtual screening modeling. QikProp software tools offer a fast, accurate, and user-friendly approach for predicting molecular characteristics. This software evaluates a given molecule's properties and compares them with those of substances present in 95% of commonly prescribed drugs. A series of graded filters is employed to identify potential interactions within the active site of the receptor and the ligand. This process involves constructing a grid with varying field sets that accurately score the ligand poses while simultaneously depicting the structure and attributes of the receptor. COX-1 and COX-2 inhibitor screening assay kits were obtained from Cayman Chemical (Ann Arbor, MI, USA).
# (§2) The inhibitory effects of tolterodine on COX-1 and COX-2 were determined using COX inhibitor screening test kits, testing each compound's capacity to inhibit the conversion of arachidonic acid to prostaglandin. In test tubes, 25 mM Tris-HCl, pH 8.0, containing 5 mM EDTA, phenol, and 1 mM hematin was added. Tolterodine was dissolved in DMSO and added in concentrations ranging from […]. […]
# (§3) Three separate experiments were used to calculate the IC50 values. The selectivity index was calculated as follows: Selectivity Index (SI)=IC50 COX-1/IC50 COX-2
# COX-1 = COX-1 (UniProt P05979); assay type: biochemical; conditions: conversion of arachidonic acid to prostaglandin; 10 min preincubation at 37° C.; three separate experiments
# Sequence of COX-1 (P05979 whole entry): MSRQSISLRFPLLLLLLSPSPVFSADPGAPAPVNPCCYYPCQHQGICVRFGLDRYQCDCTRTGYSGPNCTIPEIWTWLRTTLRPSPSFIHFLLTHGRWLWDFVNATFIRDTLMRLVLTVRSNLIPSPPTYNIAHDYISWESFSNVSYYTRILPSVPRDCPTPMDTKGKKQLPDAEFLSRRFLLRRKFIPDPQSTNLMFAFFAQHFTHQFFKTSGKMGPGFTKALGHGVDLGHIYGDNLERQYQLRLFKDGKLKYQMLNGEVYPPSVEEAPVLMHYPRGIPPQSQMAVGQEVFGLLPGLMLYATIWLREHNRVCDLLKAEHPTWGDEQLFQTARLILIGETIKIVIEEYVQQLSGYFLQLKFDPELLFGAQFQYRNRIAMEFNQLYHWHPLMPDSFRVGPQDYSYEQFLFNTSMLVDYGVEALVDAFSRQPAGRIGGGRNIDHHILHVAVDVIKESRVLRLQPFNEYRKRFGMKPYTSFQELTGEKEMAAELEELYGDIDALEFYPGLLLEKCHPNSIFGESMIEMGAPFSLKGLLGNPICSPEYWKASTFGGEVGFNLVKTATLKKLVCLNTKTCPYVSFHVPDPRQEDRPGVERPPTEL
# From the text: as §1, §2, §3
# T1 sequence (P35354 18-604): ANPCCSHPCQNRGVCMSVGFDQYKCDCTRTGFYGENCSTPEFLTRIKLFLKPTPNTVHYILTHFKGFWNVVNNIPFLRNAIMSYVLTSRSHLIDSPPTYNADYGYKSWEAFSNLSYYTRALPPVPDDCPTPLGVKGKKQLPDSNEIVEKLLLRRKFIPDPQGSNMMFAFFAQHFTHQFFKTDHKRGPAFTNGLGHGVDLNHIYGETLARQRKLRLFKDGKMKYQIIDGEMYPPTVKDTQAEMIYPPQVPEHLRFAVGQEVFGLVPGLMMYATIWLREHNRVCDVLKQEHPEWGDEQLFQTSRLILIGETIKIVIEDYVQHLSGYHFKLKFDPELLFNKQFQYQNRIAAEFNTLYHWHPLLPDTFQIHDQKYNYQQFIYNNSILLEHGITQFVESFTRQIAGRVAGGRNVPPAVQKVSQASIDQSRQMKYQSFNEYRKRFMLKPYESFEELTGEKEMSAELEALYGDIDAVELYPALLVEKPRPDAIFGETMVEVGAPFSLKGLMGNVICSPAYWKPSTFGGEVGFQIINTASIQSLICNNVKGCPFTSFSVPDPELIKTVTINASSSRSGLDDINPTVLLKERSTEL
structure (smiles),measurement,setting,value
Cc1ccc(O)c([C@H](CCN(C(C)C)C(C)C)c2ccccc2)c1 [Tolterodine],SI (Selectivity Index = IC50 COX-1/IC50 COX-2),COX-2,14.3
same,IC50,"COX-2; conversion of arachidonic acid to prostaglandin, 10 min preincubation at 37° C., three separate experiments",~320 nM and 320 nM
same,IC50,COX-1,~4530 nM and 4530 nM
